{"source": "BindingDB's records for doi:10.1016/j.chembiol.2006.06.007", "about": "(University of Wisconsin-Madison, 2006)", "experiment_in_all_cases": "High-throughput FP Assay", "key": {"[1]": {"biological_target": "T1, UDP-galactopyranose mutase (Mycobacterium tuberculosis (strain ATCC 25618 / H37Rv), UniProt P9WIQ1)", "T1 sequence (P9WIQ1 whole entry)": "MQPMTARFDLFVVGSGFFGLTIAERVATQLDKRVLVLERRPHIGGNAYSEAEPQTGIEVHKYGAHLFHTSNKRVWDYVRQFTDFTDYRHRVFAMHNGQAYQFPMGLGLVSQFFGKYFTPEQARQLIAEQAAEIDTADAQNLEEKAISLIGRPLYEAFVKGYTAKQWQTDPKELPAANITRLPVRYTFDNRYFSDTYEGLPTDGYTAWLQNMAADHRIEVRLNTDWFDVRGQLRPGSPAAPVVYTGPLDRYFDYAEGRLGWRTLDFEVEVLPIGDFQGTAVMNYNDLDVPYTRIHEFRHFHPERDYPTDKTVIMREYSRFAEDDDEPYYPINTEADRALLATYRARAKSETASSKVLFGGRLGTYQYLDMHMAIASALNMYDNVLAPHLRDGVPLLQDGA", "experimental": "(§1) To access the ability of compounds to inhibit the catalytic activity of UGM, an HPLC assay was employed. Inhibition constants were determined by monitoring UGM activity at a single substrate concentration while varying inhibitor concentration."}, "[2]": {"biological_target": "T2, UDP-galactopyranose mutase (Klebsiella pneumoniae, UniProt Q762K7)", "T2 sequence (Q762K7 whole entry)": "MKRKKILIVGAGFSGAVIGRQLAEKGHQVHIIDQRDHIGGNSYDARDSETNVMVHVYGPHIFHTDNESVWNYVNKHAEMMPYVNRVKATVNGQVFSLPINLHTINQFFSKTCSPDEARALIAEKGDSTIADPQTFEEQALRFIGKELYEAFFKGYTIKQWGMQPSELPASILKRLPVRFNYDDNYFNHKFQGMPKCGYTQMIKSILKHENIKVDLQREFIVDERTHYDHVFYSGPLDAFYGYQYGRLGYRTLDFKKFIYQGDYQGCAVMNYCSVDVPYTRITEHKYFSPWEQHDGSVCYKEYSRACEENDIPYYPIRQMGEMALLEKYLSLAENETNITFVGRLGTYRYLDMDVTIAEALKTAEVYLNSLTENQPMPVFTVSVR"}, "[3]": {"biological_target": "T1, UDP-galactopyranose mutase", "remark": "listed apart in the source"}, "[4]": {"biological_target": "T2, UDP-galactopyranose mutase", "experimental": "as §1", "remark": "listed apart in the source"}}, "data": [{"smiles": "O=C(O)c1cc(NC(=S)NCCCCCCOP(=O)(O)OP(=O)(O)OCC2OC(n3ccc(=O)[nH]c3=O)C(O)C2O)ccc1-c1c2ccc(=O)cc-2oc2cc(O)ccc12", "note": "(stereo unspecified) [Fluorescent Probe 1]", "values": [{"measurement": "IC50", "setting": "[1]", "value": 5.7, "unit": "µM"}, {"measurement": "Kd", "setting": "[2]", "value": 0.1, "unit": "µM"}, {"measurement": "Kd", "setting": "[3]", "value": 0.16, "unit": "µM"}]}, {"smiles": "NS(=O)(=O)c1ccc(N2N=C(C(F)(F)F)/C(=C/c3ccc(-c4ccc5c(c4)C(=O)NC5=O)o3)C2=O)cc1", "note": "[Pyrazol analog, 2]", "values": [{"measurement": "Kd", "setting": "[2]", "value": 1.5, "unit": "µM"}]}, {"smiles": "CCOC(=O)c1ccc(-c2ccc(/C=C3\\C(=O)N(c4ccc(S(N)(=O)=O)cc4)N=C3C(F)(F)F)o2)cc1", "note": "[Pyrazol analog, 3]", "values": [{"measurement": "Kd", "setting": "[2]", "value": 3.1, "unit": "µM"}]}, {"smiles": "CCOC(=O)c1cc(-c2ccc(/C=C3\\C(=O)N(c4ccc(S(N)(=O)=O)cc4)N=C3C(F)(F)F)o2)ccc1Cl", "note": "[Pyrazol analog, 4]", "values": [{"measurement": "Kd", "setting": "[2]", "value": 6.7, "unit": "µM"}]}, {"smiles": "O=C1c2cccc3c([N+](=O)[O-])ccc(c23)C(=O)N1Cc1cccnc1", "note": "[Pyridin analog, 11]", "values": [{"measurement": "Kd", "setting": "[3]", "value": 8, "unit": "µM"}]}, {"smiles": "O=C1N/C(=N\\S(=O)(=O)c2ccccc2)S/C1=C1/C(=O)Nc2ccc([N+](=O)[O-])cc21", "note": "[Thiazolidinone core, 5]", "values": [{"measurement": "IC50", "setting": "[4]", "value": 17, "unit": "µM"}, {"measurement": "Kd", "setting": "[2]", "value": 4, "unit": "µM"}]}, {"smiles": "O=C(O)C(Cc1ccccc1)N1C(=O)/C(=C\\c2cccc(Br)c2)SC1=S", "note": "(stereo unspecified) [Thiazolidinone core, 6]", "values": [{"measurement": "IC50", "setting": "[4]", "value": 1.6, "unit": "µM"}, {"measurement": "IC50", "setting": "[1]", "value": 65, "unit": "µM"}, {"measurement": "Kd", "setting": "[2]", "value": 9.4, "unit": "µM"}, {"measurement": "Kd", "setting": "[3]", "value": 12, "unit": "µM"}]}, {"smiles": "O=C1Nc2ccccc2/C1=C1/SC(=S)N(C(Cc2ccccc2)C(=O)O)C1=O", "note": "(stereo unspecified) [Thiazolidinone core, 8]", "values": [{"measurement": "IC50", "setting": "[4]", "value": 93, "unit": "µM"}, {"measurement": "Kd", "setting": "[2]", "value": 10.7, "unit": "µM"}]}, {"smiles": "O=c1/c(=C/c2cc([N+](=O)[O-])c(O)cc2Cl)sc2nc3ccccc3n12", "note": "[Thiazolidinone core, 10]", "values": [{"measurement": "IC50", "setting": "[4]", "value": 4, "unit": "µM"}, {"measurement": "IC50", "setting": "[1]", "value": 0.028, "unit": "µM"}, {"measurement": "Kd", "setting": "[3]", "value": 5.3, "unit": "µM"}]}, {"smiles": "O=C(O)C(Cc1ccccc1)N1C(=O)/C(=C/c2cccc(Br)c2)SC1=S", "note": "(stereo unspecified) [Thiazolidinone core, 15]", "values": [{"measurement": "Kd", "setting": "[2]", "value": "> 33", "unit": "µM"}, {"measurement": "Kd", "setting": "[3]", "value": "> 33", "unit": "µM"}]}, {"smiles": "CC(C(=O)O)N1C(=O)/C(=C\\c2cccc(Br)c2)SC1=S", "note": "(stereo unspecified) [Thiazolidinone core, 16]", "values": [{"measurement": "Kd", "setting": "[2]", "value": "> 33", "unit": "µM"}, {"measurement": "Kd", "setting": "[3]", "value": "> 330", "unit": "µM"}]}, {"smiles": "O=C(O)C(Cc1ccc(O)cc1)N1C(=O)/C(=C\\c2cccc(Br)c2)SC1=S", "note": "(stereo unspecified) [Thiazolidinone core, 17]", "values": [{"measurement": "Kd", "setting": "[2]", "value": "> 11.2", "unit": "µM"}, {"measurement": "Kd", "setting": "[3]", "value": "> 33", "unit": "µM"}]}, {"smiles": "O=C(O)CN1C(=O)/C(=C2/C(=O)Nc3ccccc32)SC1=S", "note": "[Thiazolidinone core, 18]", "values": [{"measurement": "Kd", "setting": "[2]", "value": "> 33", "unit": "µM"}, {"measurement": "Kd", "setting": "[3]", "value": "> 330", "unit": "µM"}]}, {"smiles": "CC(C(=O)O)N1C(=O)/C(=C2/C(=O)Nc3ccccc32)SC1=S", "note": "(stereo unspecified) [Thiazolidinone core, 19]", "values": [{"measurement": "Kd", "setting": "[2]", "value": "> 33", "unit": "µM"}, {"measurement": "Kd", "setting": "[3]", "value": "> 330", "unit": "µM"}]}, {"smiles": "O=C1Nc2ccccc2/C1=C1/SC(=S)N(C(Cc2ccc(O)cc2)C(=O)O)C1=O", "note": "(stereo unspecified) [Thiazolidinone core, 20]", "values": [{"measurement": "Kd", "setting": "[2]", "value": 14.1, "unit": "µM"}, {"measurement": "Kd", "setting": "[3]", "value": "> 33", "unit": "µM"}]}, {"smiles": "O=C(O)C(Cc1ccccc1)N1C(=O)/C(=C/c2cccc(Cl)c2)SC1=S", "note": "(stereo unspecified) [Thiazolidinone core, 21]", "values": [{"measurement": "IC50", "setting": "[1]", "value": 49, "unit": "µM"}, {"measurement": "Kd", "setting": "[2]", "value": 21.3, "unit": "µM"}, {"measurement": "Kd", "setting": "[3]", "value": 16, "unit": "µM"}]}, {"smiles": "O=C(O)C(Cc1ccccc1)N1C(=O)/C(=C/c2cccc(I)c2)SC1=S", "note": "(stereo unspecified) [Thiazolidinone core, 22]", "values": [{"measurement": "IC50", "setting": "[1]", "value": 41, "unit": "µM"}, {"measurement": "Kd", "setting": "[2]", "value": 6.3, "unit": "µM"}, {"measurement": "Kd", "setting": "[3]", "value": 6, "unit": "µM"}]}, {"smiles": "O=C(O)C(Cc1ccccc1)N1C(=O)/C(=C\\c2cccc(F)c2)SC1=S", "note": "(stereo unspecified) [Thiazolidinone core, 23]", "values": [{"measurement": "Kd", "setting": "[2]", "value": "> 33", "unit": "µM"}, {"measurement": "Kd", "setting": "[3]", "value": "> 33", "unit": "µM"}]}, {"smiles": "O=C(O)[C@H](Cc1ccccc1)N1C(=O)/C(=C/c2ccc(Br)cc2)SC1=S", "note": "[Thiazolidinone core, 24]", "values": [{"measurement": "IC50", "setting": "[1]", "value": 35, "unit": "µM"}, {"measurement": "Kd", "setting": "[2]", "value": "> 33", "unit": "µM"}, {"measurement": "Kd", "setting": "[3]", "value": 9.3, "unit": "µM"}]}, {"smiles": "O=C(O)C(Cc1ccccc1)N1C(=O)/C(=C\\c2ccccc2Br)SC1=S", "note": "(stereo unspecified) [Thiazolidinone core, 25]", "values": [{"measurement": "Kd", "setting": "[2]", "value": "> 33", "unit": "µM"}, {"measurement": "Kd", "setting": "[3]", "value": "> 33", "unit": "µM"}]}, {"smiles": "O=C(O)C(Cc1ccccc1)N1C(=O)/C(=C\\c2cccc([N+](=O)[O-])c2)SC1=S", "note": "(stereo unspecified) [Thiazolidinone core, 26]", "values": [{"measurement": "Kd", "setting": "[2]", "value": "> 33", "unit": "µM"}, {"measurement": "Kd", "setting": "[3]", "value": "> 33", "unit": "µM"}]}, {"smiles": "Cc1cccc(/C=C2/SC(=S)N(C(Cc3ccccc3)C(=O)O)C2=O)c1", "note": "(stereo unspecified) [Thiazolidinone core, 27]", "values": [{"measurement": "Kd", "setting": "[2]", "value": "> 33", "unit": "µM"}, {"measurement": "Kd", "setting": "[3]", "value": "> 33", "unit": "µM"}]}, {"smiles": "COc1cccc(/C=C2/SC(=S)N(C(Cc3ccccc3)C(=O)O)C2=O)c1", "note": "(stereo unspecified) [Thiazolidinone core, 28]", "values": [{"measurement": "Kd", "setting": "[2]", "value": "> 33", "unit": "µM"}, {"measurement": "Kd", "setting": "[3]", "value": "> 33", "unit": "µM"}]}, {"smiles": "O=C(O)C(Cc1ccccc1)N1C(=O)/C(=C\\c2ccccc2)SC1=S", "note": "(stereo unspecified) [Thiazolidinone core, 29]", "values": [{"measurement": "Kd", "setting": "[2]", "value": "> 33", "unit": "µM"}, {"measurement": "Kd", "setting": "[3]", "value": "> 33", "unit": "µM"}]}, {"smiles": "O=C1Nc2ccc([N+](=O)[O-])cc2/C1=C1/SC(=S)N(C(Cc2ccccc2)C(=O)O)C1=O", "note": "(stereo unspecified) [Thiazolidinone core, 30]", "values": [{"measurement": "IC50", "setting": "[1]", "value": "> 100", "unit": "µM"}, {"measurement": "Kd", "setting": "[2]", "value": 5.7, "unit": "µM"}, {"measurement": "Kd", "setting": "[3]", "value": 10, "unit": "µM"}]}, {"smiles": "O=C(O)N1C(=O)/C(=C\\c2ccccc2)SC1=S", "note": "[Thiazolidinone core, 31]", "values": [{"measurement": "Kd", "setting": "[2]", "value": "> 33", "unit": "µM"}, {"measurement": "Kd", "setting": "[3]", "value": "> 330", "unit": "µM"}]}]}
